Results: ChEMBL document CHEMBL5360581, “Discovery of a novel dual functional phenylpyrazole-styryl hybrid that induces apoptotic and autophagic cell death in bladder cancer cells” (Eur J Med Chem, 2023)
Active and inactive are the calls of the source. No cut-off for these calls is given here.

Columns and labels:
[1] = Selectivity index, ratio of IC50 for cytotoxicity against human NHDF cells to IC50 for cytotoxicity against human HT-1080 cells
EJ-28 [2] = experiment: Induction of apoptosis in human EJ-28 cells assessed as upregulation of Mcl-1 expression incubated for 24 hrs by Western blotting analysis; format: functional, cell-based
EJ-28 [3] = experiment: Induction of apoptosis in human EJ-28 cells assessed as upregulation of NOXA expression incubated for 24 hrs by Western blotting analysis; format: functional, cell-based
EJ-28 [4] = experiment: Induction of cell cycle arrest in human EJ-28 cells assessed as accumulation of cells at G2/M phase at 10 uM incubated for 48 hrs by propidium iodide staining based flow cytometry (reference value: 20%); format: functional
EJ-28 [5] = experiment: Induction of apoptosis in human EJ-28 cells assessed as downregulation of procaspase-3 expression incubated for 24 to 72 hrs by Western blotting analysis; format: functional, cell-based; details: time 24-72 hrs
[6] = Selectivity index, ratio of IC50 for cytotoxicity against human NHDF cells to IC50 for cytotoxicity against human EJ-28 cells
SW-620 = experiment: Antiproliferative activity against human SW620 cells assessed as reduction in cell viability at 20 uM measured for 72 hrs by MTT assay; format: functional, cell-based
[7] = Toxicity in Zebrafish embryo assessed as body curvature at 12.5 uM administered for 4 hrs post fertilization and measured after 3 days post fertilization; parameters: species or system Danio rerio; details: in vivo, 72 h, time 3 day
EJ-28 [8] = experiment: Induction of cell cycle arrest in human EJ-28 cells assessed as accumulation of cells at S phase at 1.25 uM incubated for 48 hrs by propidium iodide staining based flow cytometry (reference value: 30%); format: functional
EJ-28 [9] = experiment: Induction of morphological changes in human EJ-28 cells assessed as intracellular vacuolization at 7.5 uM incubated for 24 to 72 hrs by microscopic analysis; format: functional, cell-based; details: time 24-72 hrs
A549 = experiment: Cytotoxicity against human A549 cells assessed inhibition of cell growth incubated for 72 hrs by MTT assay; format: functional, cell-based; details: A549, 72 h
[10] = Toxicity in Zebrafish embryo assessed as oedema at 12.5 uM administered for 4 hrs post fertilization and measured after 3 days post fertilization; parameters: species or system Danio rerio; details: in vivo, 72 h, time 3 day
HT-1080 = experiment: Antiproliferative activity against human HT-1080 cells assessed as reduction in cell viability at 20 uM measured for 72 hrs by MTT assay; format: functional, cell-based
[11] = Toxicity in Zebrafish embryo assessed as adverse phenotype at 12.5 to 50 uM administered for 4 hrs post fertilization and measured after 6 days post fertilization; parameters: species or system Danio rerio; details: in vivo, 144 h, dose 12.5-50 µM, time 6 day
EJ-28 [12] = experiment: Induction of apoptosis in human EJ-28 cells assessed as upregulation of PARP expression incubated for 48 to 72 hrs by Western blotting analysis; format: functional, cell-based; details: time 48-72 hrs
EJ-28 [13] = experiment: Induction of autophagy in human EJ-28 cells assessed as upregulation of Atg3 expression at 5 to 12.5 uM incubated for 24 to 72 hrs by Western blot analysis; format: functional, cell-based; details: dose 5-12.5 µM, time 24-72 hrs
T-24 = experiment: Induction of morphological changes in human T24 cells assessed as intracellular vacuolization at 7.5 uM incubated for 48 hrs by microscopic analysis; format: functional, cell-based
EJ-28 [14] = experiment: Induction of cell cycle arrest in human EJ-28 cells assessed as accumulation of cells at S phase at 5 uM incubated for 48 hrs by propidium iodide staining based flow cytometry (reference value: 30%); format: functional
EJ-28 [15] = experiment: Induction of apoptosis in human EJ-28 cells incubated for 24 to 72 hrs by AnnexinV-FITC/propidium iodide staining based flow cytometry analysis; format: functional, cell-based; details: dose 1.25-10 µM, time 24-72 hrs
EJ-28 [16] = experiment: Induction of autophagy in human EJ-28 cells assessed as upregulation of Atg5 expression at 5 to 12.5 uM incubated for 24 to 72 hrs by Western blot analysis; format: functional, cell-based; details: dose 5-12.5 µM, time 24-72 hrs
EJ-28 [17] = experiment: Induction of cell cycle arrest in human EJ-28 cells assessed as accumulation of cells at sub-G0/G1 phase at 5 uM incubated for 48 hrs by propidium iodide staining based flow cytometry (reference value: 48%); format: functional
EJ-28 [18] = experiment: Induction of apoptosis in human EJ-28 cells assessed as upregulation of Bax expression incubated for 48 to 72 hrs by Western blotting analysis; format: functional, cell-based; details: time 48-72 hrs
EJ-28 [19] = experiment: Induction of apoptosis in human EJ-28 cells assessed as upregulation of Bcl-xL expression incubated for 24 hrs by Western blotting analysis; format: functional, cell-based
EJ-28 [20] = experiment: Induction of cell cycle arrest in human EJ-28 cells assessed as accumulation of cells at sub-G0/G1 phase at 1.25 uM incubated for 48 hrs by propidium iodide staining based flow cytometry (reference value: 48%); format: functional
[21] = Toxicity in Zebrafish embryo assessed as mortality at 12.5 to 50 uM administered for 4 hrs post fertilization and measured after 6 days post fertilization; parameters: species or system Danio rerio; details: in vivo, 144 h, dose 12.5-50 µM, time 6 day
EJ-28 [22] = experiment: Induction of cell cycle arrest in human EJ-28 cells assessed as accumulation of cells at sub-G0/G1 phase at 10 uM incubated for 48 hrs by propidium iodide staining based flow cytometry (reference value: 48%); format: functional
EJ-28 [23] = experiment: Induction of autophagy in human EJ-28 cells assessed as upregulation of Atg7 expression at 5 to 12.5 uM incubated for 24 to 72 hrs by Western blot analysis; format: functional, cell-based; details: dose 5-12.5 µM, time 24-72 hrs
EJ-28 [24] = experiment: Induction of apoptosis in human EJ-28 cells assessed as upregulation of Bak expression incubated for 24 hrs by Western blotting analysis; format: functional, cell-based
EJ-28 [25] = experiment: Induction of autophagy in human EJ-28 cells assessed as increase in green fluorescence intensity incubated for 24 hrs by flow cytometry analysis; format: functional, cell-based; details: dose 5-12.5 µM
EJ-28 [26] = experiment: Induction of apoptosis in human EJ-28 cells assessed as upregulation of PUMA expression incubated for 48 hrs by Western blotting analysis; format: functional, cell-based
EJ-28 [27] = experiment: Induction of cell cycle arrest in human EJ-28 cells assessed as accumulation of cells at G2/M phase at 2.5 uM incubated for 48 hrs by propidium iodide staining based flow cytometry (reference value: 20%); format: functional
EJ-28 [28] = experiment: Induction of apoptosis in human EJ-28 cells at 1.25 to 10 uM by AnnexinV-FITC/propidium iodide staining based flow cytometry analysis; format: functional, cell-based; details: dose 1.25-10 µM, time 24-72 hrs, TDE = time-dependent effect
EJ-28 [29] = experiment: Inhibition of colony formation in human EJ-28 cells at 2.5 to 10 uM incubated for 10 days by crystal violet staining based assay; format: functional, cell-based; details: dose 2.5-10 µM, time 10.0 day
[30] = Selectivity index, ratio of IC50 for cytotoxicity against human NHDF cells to IC50 for cytotoxicity against human A549 cells; format: toxicity, cell-based; details: NHDF cells and A549 cells, read-out: Ratio IC50
[31] = Toxicity in Zebrafish embryo assessed as mild bradycardia at 50 uM administered for 4 hrs post fertilization and measured after 3 days post fertilization; parameters: species or system Danio rerio; details: in vivo, 72 h, time 3 day
EJ-28 [32] = experiment: Cytotoxicity against human EJ-28 cells assessed inhibition of cell growth incubated for 72 hrs by MTT assay; format: functional, cell-based; details: EJ-28, 72 h
EJ-28 [33] = experiment: Induction of apoptosis in human EJ-28 cells assessed as upregulation of phosphorylated […] level incubated for 24 to 72 hrs by Western blotting analysis; format: functional, cell-based; details: time 24-72 hrs
EJ-28 [34] = experiment: Induction of cell cycle arrest in human EJ-28 cells assessed as accumulation of cells at sub-G0/G1 phase at 2.5 uM incubated for 48 hrs by propidium iodide staining based flow cytometry (reference value: 48%); format: functional

In the case of `O=[N+]([O-])c1cccc(/C=C/c2cc(-c3cc(Cl)ccc3O)n(-c3ccccc3)n2)c1`, the “Ratio IC50” value [1] is reported as 2.6, the Activity (EJ-28 [2]) is reported as “Active” and the Activity (EJ-28 [3]) is reported as “Active”. The Activity (EJ-28 [4]) was 17%, the Activity (EJ-28 [5]) was “Active” and the “Ratio IC50” value [6] was 2.6. For the same molecule, the Activity (SW-620) was “Active”, the Activity [7] was “Non-Toxic” and the Activity (EJ-28 [8]) was 27%. The Activity (EJ-28 [9]) was “Active”, the IC50 (A549) was 15.1 µM and the Activity [10] was “Non-Toxic”. The Activity (HT-1080) was “Active”, the Activity [11] was “Non-Toxic” and the Activity (EJ-28 [12]) was “inactive”. For the same molecule, the Activity (EJ-28 [13]) was “inactive”, the Activity (T-24) was “Active” and the Activity (EJ-28 [14]) was 21%. For the same molecule, the Activity (EJ-28 [15]) was “Dose-Dependent Effect”, the Activity (EJ-28 [16]) was “Active” and the Activity (EJ-28 [17]) was 58%. The Activity (EJ-28 [18]) was “Active”, the Activity (EJ-28 [19]) was “inactive” and the Activity (EJ-28 [20]) was 53%. The Activity [21] was “Non-Toxic”, the Activity (EJ-28 [22]) was 58% and the Activity (EJ-28 [23]) was “inactive”. For the same molecule, the Activity (EJ-28 [24]) was “Active”, the Activity (EJ-28 [25]) was “Dose-Dependent Effect” and the Activity (EJ-28 [26]) was “Active”. For the same molecule, the Activity (EJ-28 [27]) was 15%, the Activity (EJ-28 [28]) was “Tde” and the inhibition (EJ-28 [29]) was “Active”. For the same molecule, the selectivity ratio [30] was 2.6, the Activity [31] was “Toxic” and the IC50 (EJ-28 [32]) was 2.8 µM. The Activity (EJ-28 [33]) was “Active” and the Activity (EJ-28 [34]) was 57%.
